# Patent US20250214977A1, “STAT6 INHIBITORS AND USES THEREOF” (Kymera Therapeutics, Inc., priority 2024, published 2025)
# System: Phosphorylation of STAT6 in human A549 cells
# Assay: Phosphorylated STAT6 (pSTAT6) flow cytometry assay in human A549 cells
# Type: cell-based
# Settings: listed as I-391, read-out: STAT6 IL4 pSTAT6 assay in A549 cells: Average IC50
# Source text: Example 3. Phosphorylated STAT6 (pSTAT6) Flow Cytometry Assay in Human A549 Cells
# Phosphorylation of STAT6 in human A549 cells was quantitatively measured using flow cytometry technology.
row,IC50,SMILES
1,< 100 nM,"COc1cc(F)cnc1N1CCN(C(=O)c2cc3c([C@H]4CCCN4C)cc(C4=CCCN(C(=O)CCn5ccnn5)C4)c(F)c3[nH]2)CC1 (single isomer, unassigned) [Example I-814]"

# Same assay, conditions: read-out: STAT6 IL4 pSTAT6 assay in A549 cells: Average IC50
row,IC50,SMILES
1,< 100 nM,CN(C)C(=O)c1cc2cc(C3=CCCN(C(=O)CCn4ccnn4)C3)cc(-c3ccc4cncnc4c3)c2o1 [Example I-1089]
2,< 100 nM,COc1ccncc1-c1cc(C2=CCCN(C(=O)CCn3ccnn3)C2)c(F)c2[nH]c(C(=O)N3CCN(c4ccc(Cl)cc4OC)CC3)cc12 [Example I-450]
3,< 100 nM,COc1ccccc1-c1cc(C2=CCCN(C(=O)CCn3ccnn3)C2)c(F)c2[nH]c(C(=O)N3CCN(c4cnn(C)c4C#N)CC3)cc12 [Example I-1005]
4,< 100 nM,CCSc1ccccc1-c1cc(C2=CCCN(C(=O)CCn3ccnn3)C2)c(F)c2[nH]c(C(=O)N3CCN(c4ncc(F)cc4OC)CC3)cc12 [Example I-679]
5,< 100 nM,COc1cccnc1N1CCN(C(=O)c2cc3c(-c4ccc(C#N)cn4)cc(C4=CCCN(C(=O)CCn5ccnn5)C4)c(F)c3[nH]2)CC1 [Example I-575]
6,< 100 nM,CCc1cc(C)ncc1-c1cc(C2=CCCN(C(=O)CCc3nccs3)C2)c(F)c2[nH]c(C(=O)N3CCN(c4ncc(F)cc4OC)CC3)cc12 [Example I-525]
7,< 100 nM,COc1cc(N(C)C)ccc1-c1cc(C2=CCCN(C(=O)CCn3ccnn3)C2)c(F)c2[nH]c(C(=O)N3CCN(c4ncccc4OC4CC4)CC3)cc12 [Example I-609]
8,< 100 nM,COc1cc(F)cnc1N1CCN(C(=O)c2cc3c(-c4ccccc4C4CC4)cc(C4=CCCN(C(=O)CCn5ccnn5)C4)c(F)c3[nH]2)CC1 [Example I-645]
9,< 100 nM,COc1ccccc1-c1cc(C2=CCCN(C(=O)CCn3cccn3)C2)c(F)c2[nH]c(C(=O)N3CCN(c4ncc(F)cc4OC)CC3)cc12 [Example I-687]
10,< 100 nM,COc1cc(F)cnc1N1CCN(C(=O)c2cc3c(-c4cccc(-c5cccnc5)c4)cc(C4=CCCN(C(=O)CCn5ccnn5)C4)c(F)c3[nH]2)CC1 [Example I-629]
11,100 to 1000 nM,COc1ccncc1-c1cc(C2=CCCN(C(C)=O)C2)c(F)c2sc(C(=O)N(C)C)cc12 [Example I-555]
12,< 100 nM,COc1cc(C)c(-c2cc(C3=CCCN(C(=O)CCn4ccnn4)C3)cc3cc(C(=O)N(C)C)oc23)cc1C [Example I-1078]
13,< 100 nM,CCc1ccncc1-c1cc(C2=CCCN(C(=O)CCn3ccnn3)C2)c(F)c2[nH]c(C(=O)N3CCN(C4CC4)CC3)cc12 [Example I-473]
14,< 100 nM,COc1ccccc1-c1cc(C2=CCCN(C(=O)CCn3ccnn3)C2)c(F)c2[nH]c(C(=O)N3CCC(OC4CCC4)CC3)cc12 [Example I-984]
15,> 100000 nM,"COc1cc(F)cnc1N1CCN(C(=O)c2cc3c([C@H]4CCCN4C)cc(C4=CCCN(C(=O)CCn5ccnn5)C4)c(F)c3[nH]2)CC1 (single isomer, unassigned) [Example I-814]"
16,< 100 nM,COc1ccccc1-c1cc(C2=CCCN(C(=O)CCn3ccnn3)C2)c(F)c2[nH]c(C(=O)N3CCN(c4ncccc4C(F)(F)F)CC3)cc12 [Example I-329]
17,< 100 nM,COc1ccccc1-c1cc(C2=CCCN(C(=O)CCn3ccnn3)C2)c(F)c2[nH]c(C(=O)N3CCNC(=O)[C@@H]3C)cc12 [Example I-996]
18,1000 to 10000 nM,COc1ccccc1-c1cc(C2=CCCN(C(=O)CCn3ccnn3)C2)c(F)c2[nH]c(C(=O)N3CCN(c4ccc5c(c4)Nc4ccccc4CC5)CC3)cc12 [Example I-947]
19,< 100 nM,Cc1[nH]nc2ccc(-c3cc(C4=CCCN(C(=O)CCn5ccnn5)C4)cc4cc(C(=O)N(C)C)oc34)cc12 [Example I-1075]

row,IC50,SMILES
1,< 100 nM,CCn1ncc2c1CN(C(=O)c1cc(C3=CCCCC3)c3c(c1)cc(C1=CCCN(C(=O)CCn4ccnn4)C1)n3CC1CC1)C2 [Example I-765]
2,> 100000 nM,COc1cc(C)ncc1-c1cc(C2=CCCN(C(=O)CCn3ccnn3)C2)c(F)c2[nH]c(C(=O)N3CCN(c4ncc(F)cc4OC)CC3)cc12 [Example I-667]
3,< 100 nM,COc1cc(F)cnc1N1CCN(C(=O)c2cc3c(-c4ccc(C5CC5)cc4)cc(C4=CCCN(C(=O)CCn5ccnn5)C4)c(F)c3[nH]2)CC1 [Example I-1157]
4,< 100 nM,COc1cc(F)cnc1N1CCN(C(=O)c2cc3c(-c4ccc(C(=O)N5CCCC5)cc4F)cc(C4=CCCN(C(=O)CCn5ccnn5)C4)c(F)c3[nH]2)CC1 [Example I-1143]
5,< 100 nM,CNc1ccc(-c2cc(C3=CCCN(C(=O)CCn4ccnn4)C3)c(F)c3[nH]c(C(=O)N4CCN(c5ncccc5OC)CC4)cc23)c(OC)c1 [Example I-580]
6,< 100 nM,COc1ccccc1-c1cc(C2=CCCN(C(=O)CCn3ccnn3)C2)c(F)c2[nH]c(C(=O)N3CCc4nocc4C3)cc12 [Example I-1029]
7,< 100 nM,COc1ccccc1-c1cc(C2=CCCN(C(=O)CCn3ccnn3)C2)c(F)c2[nH]c(C(=O)N3CCC4CC43)cc12 (stereo not drawn) [Example I-1011]
8,> 100000 nM,CCc1nc(C)ccc1-c1cc(C(=O)N2CCN(c3nc(C)c(F)cc3OC)CC2)cc2cc(C3=CCCN(C(=O)CCn4ccnn4)C3)n(CC3CC3)c12 [Example I-546]
9,< 100 nM,COc1ccccc1-c1cc(C2=CCCN(C(=O)CCn3ccnn3)C2)c(F)c2[nH]c(C(=O)N3CCN(c4cc5cccnc5cc4F)CC3)cc12 [Example I-924]
10,10000 to 100000 nM,COc1ccncc1-c1cc(C2=CCCN(C(C)=O)C2)c(F)c2[nH]c(C(=O)N3Cc4cnn(C)c4C3)cc12 [Example I-701]
11,100 to 1000 nM,CN(C)C(=O)c1cc2cc(C3=CCCN(C(=O)C(Cn4ccnn4)c4cccc(CO)c4)C3)ccc2o1 (stereo not drawn) [Example I-833]
12,< 100 nM,COc1cc(N)ccc1-c1cc(C2=CCCN(C(=O)CCn3ccnn3)C2)c(F)c2[nH]c(C(=O)N3CCN(c4ncccc4OC)CC3)cc12 [Example I-571]
13,< 100 nM,COc1ccccc1-c1cc(C2=CCCN(C(=O)CCn3ccnn3)C2)c(F)c2[nH]c(C(=O)N3CCN(c4cc(C#N)ccn4)CC3)cc12 [Example I-875]
14,< 100 nM,CN(C)C(=O)c1cc2cc(C3=CCCN(C(=O)CCn4ccnn4)C3)cc(NCc3ccccc3C3CC3)c2o1 [Example I-878]
15,< 100 nM,CCc1ccncc1-c1cc(C2=CCCN(C(=O)CCn3ccnn3)C2)c(F)c2[nH]c(C(=O)N3CCN(c4ncc(F)cc4OC)CC3)cc12 [Example I-476]
16,< 100 nM,COc1ccncc1-c1cc(C2=CCCN(C(=O)CCn3ccnn3)C2)c(F)c2[nH]c(C(=O)N3CCN(c4ncc(C(C)C)cc4OC)CC3)cc12 [Example I-454]
17,< 100 nM,CNc1ccc(-c2cc(C3=CCCN(C(=O)C4Cc5c(N)cccc5CN4C=O)C3)cc3cc(C(=O)N(C)C)oc23)c(OC)c1 (stereo not drawn) [Example I-1063]
18,100 to 1000 nM,COc1ccccc1-c1cc(C2=CCCN(C(=O)CCn3ccnn3)C2)c(F)c2[nH]c(C(=O)N3CCN(c4c(OC)cccc4Oc4ccccc4)CC3)cc12 [Example I-414]
19,100 to 1000 nM,COc1ccccc1-c1cc(C2=CCCN(C(=O)CCn3ccnn3)C2)c(F)c2[nH]c(C(=O)N3CCN(c4cc(O)cc5ccccc45)CC3)cc12 [Example I-930]

row,IC50,SMILES
1,10000 to 100000 nM,CCc1ccncc1-c1cc(C2=CCCN(C(=O)OC)C2)c(F)c2[nH]c(C(=O)N3CCN(c4ncc(F)cc4OC)CC3)cc12 [Example I-708]
2,> 100000 nM,CCc1cnccc1-c1cc(C(=O)N2CCN(c3ncc(F)cc3OC)CC2)cc2cc(C3=CCCN(C(=O)C(=O)O)C3)n(CC3CC3)c12 [Example I-796]
3,< 100 nM,COc1ccccc1-c1cc(C2=CCCN(C(=O)CCn3ccnn3)C2)c(F)c2[nH]c(C(=O)N3CCN(CC(=O)NC(C)C)CC3)cc12 [Example I-1200]
4,< 100 nM,COc1ccccc1-c1cc(C2=CCCN(C(=O)CCn3ccnn3)C2)c(F)c2[nH]c(C(=O)N3CCOCC3)cc12 [Example I-985]
5,100 to 1000 nM,COc1ccc(C)cc1-c1cc(C2=CCCN(C(=O)C3Cc4ccccc4CN3C=O)C2)cc2cc(C(=O)N(C)C)oc12 (stereo not drawn) [Example I-1197]
6,100 to 1000 nM,CN(C)C(=O)c1cc2cc(C3=CCCN(C(=O)CCn4ccnn4)C3)cc(NCc3ccc(C(F)(F)F)cc3)c2o1 [Example I-877]
7,100 to 1000 nM,Cc1cc(CNc2cc(C3=CCCN(C(=O)CCn4ccnn4)C3)cc3cc(C(=O)N(C)C)oc23)n(C)n1 [Example I-894]
8,< 100 nM,COc1ccccc1-c1cc(C2=CCCN(C(=O)CCn3ccnn3)C2)c(F)c2[nH]c(C(=O)N3CCN(c4cc(=O)[nH]cc4F)CC3)cc12 [Example I-779]
9,< 100 nM,CCc1cnccc1-c1cc(C2=CCCN(C(=O)CCn3ccnn3)C2)c(F)c2[nH]c(C(=O)N3CCN(c4ncc(F)cc4OC)CC3)cc12 [Example I-689]
10,< 100 nM,COC(=O)N1CCN(C(=O)c2cc3c(-c4ccccc4OC)cc(C4=CCCN(C(=O)CCn5ccnn5)C4)c(F)c3[nH]2)CC1 [Example I-988]
11,< 100 nM,COc1cc(F)cnc1N1CCN(C(=O)c2cc3c(-c4cc(C)nc(C)c4)cc(C4=CCCN(C(=O)CCn5ccnn5)C4)c(F)c3[nH]2)CC1 [Example I-632]
12,< 100 nM,COc1cc(F)cnc1N1CCN(C(=O)c2cc3c(-c4ccc(=O)n(Cc5ccccc5)c4)cc(C4=CCCN(C(=O)CCn5ccnn5)C4)c(F)c3[nH]2)CC1 [Example I-1136]
13,< 100 nM,CCC1=C(c2cc(C3=CCCN(C(=O)CCn4ccnn4)C3)c(F)c3[nH]c(C(=O)N4CCN(c5ncc(F)cc5OC)CC4)cc23)CN(C)CC1 [Example I-730]
14,< 100 nM,COc1cccnc1N1CCN(C(=O)c2cc3c(-c4nc(C)[nH]c4C)cc(C4=CCCN(C(=O)CCn5ccnn5)C4)c(F)c3[nH]2)CC1 [Example I-572]
15,< 100 nM,COc1c(F)cc(F)cc1-c1cc(C2=CCCN(C(=O)CCn3ccnn3)C2)c(F)c2[nH]c(C(=O)N3CCN(c4ncccc4OC4CC4)CC3)cc12 [Example I-597]
16,> 100000 nM,COc1ccncc1-c1cc(C2=CCCN(C(=O)CCn3ccnn3)C2)c(F)c2[nH]c(C(=O)N3CCN(c4ccccc4)CC3)cc12 [Example I-400]
17,10000 to 100000 nM,"COc1ccccc1-c1cc(C2=CCCN(C(=O)[C@@H]3Cc4ccccc4CN3C=O)C2)cc2cc(C(=O)N(C)C)oc12 (single isomer, unassigned) [Example I-805]"
18,100 to 1000 nM,CC(=O)N1CCC=C(c2cc(-c3ccc(C)nc3)c3cc(C(=O)N(C)C)[nH]c3c2F)C1 [Example I-885]
